# Laboratory results as given in patent publication US20250042853A1, “BICYCLIC COMPOUND AND APPLICATION THEREOF” (BETTA PHARMACEUTICALS CO., LTD, priority 2021, published 2025).
# Tests used:
# [1] = tested on: 786-O-HIF2α-Luc cells; assay: Luciferase assay (HIF2α reporter gene cells); type: cell-based; settings: 18-20 h, luminescence
# Description: The luciferase LUC gene was stably transfected into 786-0 cells (purchased from ATCC) using Lipofectamine 3000 transfection reagent (purchased from Invitrogen) to construct HIF2α reporter gene cells (786-O-HIF2α-Luc cells). The experiment was performed when 786-O-HIF2α-Luc cells were in the logarithmic growth phase, the culture medium (RPMI MEDIUM 1640, purchased from Invitrogen) was discarded, and the cells were rinsed three times with PBS; trypsin (TrypLE, purchased from Invitrogen) was added to digest the cells, and the digestion was terminated with culture medium, 10% fetal bovine serum, 1% penicillin, and streptomycin. The cells were collected by centrifugation, and washed twice with PBS to remove phenol red in the culture medium. The cells were resuspended to an appropriate concentration. The cell density and viability were measured, to ensure that the cells with a viability of at least 90% were used in the assay.
# The compounds at a gradient concentration were transferred into 384 wells using Echo550 (non-contact acoustic pipetting system, purchased from Labcyte), 25 nL/well. The cells were seeded into 384-well plates, with 4500 cells/well and 25 μL of culture medium, and the final concentrations of the compounds were 10000 nM, 3333 nM, 1111 nM, 370 nM, 123 nM, 41.1 nM, 13.7 nM, 4.6 nM, 1.5 nM, and 0.5 nM, respectively. The cells were cultured for 18-20 h under conditions of 37° C. and 5% CO2. Steady-Glo™ luciferase assay system (purchased from Promega) was added to a 384-well plate, 25 μL/well. Luminescence values were detected using Envision. The inhibition rate % was calculated based on the RLU (Record Luminescence) signal value of each well, and then the IC50 values of the corresponding compounds were calculated by fitting using Graphpad 8.0.
# The IC50 data of the exemplary examples are provided in Table 2, where A stands for IC50≤0.1 μM; B stands for 0.1 μM<IC50≤0.5 μM; and C stands for IC50>0.5 μM.
# [2] = tested on: VEGFA; assay: VEGFA ELISA assay (IC50); type: cell-based; settings: Homo sapiens, 786-0; 786-O cells, 24 h, VEGFA in culture supernatant by ELISA
# Description: 786-O cells in the logarithmic growth phase were inoculated into a 96-well plate at a cell concentration of 65,000 cells per ml of culture liquid, 180 μL per well. The compounds were diluted to the corresponding concentrations, and 20 μL of compound solutions of various concentrations were added to the corresponding cell wells, so that the final concentrations of the compounds were 1.5 nM, 4.6 nM, 13.7 nM, 41.2 nM, 123.5 nM, 370.4 nM, 1111.1 nM, 3333.3 nM, and 10000 nM, respectively. After culturing for 24 h, the cell culture supernatant was collected and the VEGFA concentration was determined using an ELISA kit (purchased from Abeam). Finally, the reaction was terminated and the absorbance value of each well was measured at a wavelength of 450 nm using an ELISA reader. The IC50 values were calculated by GraphPadPrism. CellTiter-Glo reagent was used to measure cell viability.
IC50 [1] [nM],IC50 [2] [nM],SMILES
10,18,"N#Cc1ccc(-n2cc(S(=O)(=O)C(F)(F)F)c3c2CCC(F)(F)[C@H]3O)cc1C(F)F [Example 35, (S)-4-(5,5-difluoro-4-hydroxyl-3-((trifluoromethyl)sulfonyl)-4,5,6,7-tetrahydro-1H-indol-1-yl)-2-(difluoromethyl)benzonitrile]"
38,11,"O=S(=O)(c1cn(-c2ccc(F)c(C(F)F)c2)c2c1[C@H](O)C(F)(F)CC2)C(F)F [Example 6, (S)-1-(3-(difluoromethyl)-4-fluorophenyl)-3-((difluoromethyl)sulfonyl)-5,5-difluoro-4,5,6,7-tetrahydro-1H-indol-4-ol]"
